The text below walks through data of US10933067B2, “Nucleoside derivative having physiological activity such as antiviral activity” (NATIONAL CENTER FOR GLOBAL HEALTH AND MEDICINE, priority 2016, dated 2021).

Broadly, the EC50 is the concentration giving half of the maximal effect. One may read the CC50 as the concentration giving 50% cytotoxicity. A high value points to lower toxicity to the cells.

Read-outs that look alike come from different tables or passages of the source. A value given as a limit tells only on which side of the number the result lay.

What all share (format): cell-based
The subject of one series is HBV. Description: Evaluation of anti-HBV activity (HepG2 2.2.15.7 cells, HBV DNA qPCR). The following applies: Hepatitis B virus. The method, then:
HepG2 2.2.15.7 cells were used as test cells. The HepG2 2.2.15.7 cells were prepared by using, as parent cell lines, HepG2 2.2.15 cells prepared so as to continuously produce HBV by introducing the HBV genes into human hepatoma cell lines (HepG2 cells). Meanwhile, the HepG2 2.2.15.7 cells were maintained by continuous culturing in DMEM containing 10% fetal calf serum, G418 (500 μg/ml), and antibiotics (penicillin and kanamycin).
The HepG2 2.2.15.7 cells are HBV continuously producing cells that carry not only genomically integrated DNAs, but also HBV genes produced as episomes. Therefore, the HepG2 2.2.15.7 cells were co-cultured with each nucleoside derivative, the DNA copy number of viruses released into the culture supernatant and the DNA copy number of the viruses present in the HepG2 2.2.15.7 cells were quantified, and a degree of decrease thereof was used as an index of the evaluation of the anti-HBV activity.
More specifically, the epG2 2.2.15.7 cells with a cell viability of 90% or more were seeded in a collagen-coated 96-well cell culture dish at a concentration of 2×10^4 cells/ml, and each nucleoside derivative was added at various concentrations at the same day as the cell seeding. After culturing for 3 days under the standard culture conditions of 37° C. and 5% CO2, the medium was exchanged to a fresh medium containing each nucleoside derivative, and HBV DNA was collected from the culture supernatant on the third day after the exchange for a 1W assay (an assay on day 7 from the start of culture). In addition, a fresh medium containing each nucleoside derivative was further added to the cell plate after the collection of the supernatant, and the culture was further continued for 7 days. For a 2W assay (an assay on day 14 from the start of culture), intracellular HBV DNAs were collected from the HepG2 2.2.15.7 cells. Using these DNAs as a template, the quantitative PCR was performed to find the virus copy number from the calibration curve, and the 50% effect (EC50) for each nucleoside derivative was calculated.
The DNA extractions from the supernatant of the HepG2 2.2.15.7 cells and from inside the cells were carried out using QIAamp Mini Elute virus Spin Kit (manufactured by QIAGEN), and 5 μL of the extracted DNAs was used for the qPCR. The PCR reaction was conducted by using a specific TaqMan probe primer, manufactured by Primer Design Ltd., which detects the HBV core protein region. The PCR reaction was carried out at 95° C. for 15 minutes, followed by 50 cycles of 95° C. for 10 seconds and 60° C. for 60 seconds. The obtained CT was converted to the HBV copy number using a calibration curve obtained from reactions in which HBV DNA fragments at a known concentration were diluted every 10-fold (from to 2×10^8 copies).
In general terms: Quantitative PCR measures a nucleic acid by following its amplification.

The nature of series [1]: Cytotoxicity test 1, HepG2 cells (MTT assay). To be noted: human. The method, then:
(§1) The above nucleoside derivatives were also subjected to cytotoxicity tests on the MT-2 cells and HepG2 cells. Together with the medium to which each nucleoside derivative at each concentration after serial dilution was added, the MT-2 cells were seeded at a concentration of 1×10^4, whereas the HepG2 cells were seeded at a concentration of 1×10^4. Thus, these cells were cultured in the presence of each nucleoside derivative at various concentrations for 7 days under the standard culture conditions of 37° C. and 5% CO2, and thereafter the number of live cells in each well was quantified by an MTT assay. Based on the numbers of live cells obtained, the CC50 was calculated for each nucleoside derivative.
For orientation: Tetrazolium dyes change colour on reduction, which living cells bring about.

For a further series, the system named is HIV-1 LAI. Description: Evaluation of anti-HIV activity (MT-2 cells exposed to HIV-1 LAI, MTT assay). To be noted: Human immunodeficiency virus 1, MT2, 168 h, 7 days, read-out: Antiviral activity, EC50 HIV-1. From the text: HIV-1 LAI was used as a wild-type HIV-1 molecular clone. In addition, MT-2 cells were used as cells to be infected. These cells were continuously cultured and maintained in a RPMI-1640 medium containing 10% FCS and supplemented with the aforementioned antibiotics. The MT-2 cells were exposed to HIV-1 LAI virus in an amount of 50 times the 50% infectious concentration (TCID 50), and the resultant MT-2 cells and a medium supplemented with each of the nucleoside derivatives at each of concentrations after serial dilution were together seeded into each cell of a 96-well cell culture dish at a concentration of 1×10^4 cells/mL. Then, after culturing for 7 days in the presence of each nucleoside derivative under standard culture conditions of 37° C. and 5% CO2, the number of live cells in each well was quantified by MTT assay. Based on the numbers of live cells obtained, the EC50 value was calculated and the anti-HIV activity of each nucleoside derivative was evaluated.

Series [2] in a line: Cytotoxicity test 1, MT-2 cells (MTT assay). To be noted: human. The protocol:
as §1

Series [3] can be described thus: Cytotoxicity test 2, PXB cells (MTT assay). The following applies: PXB cells (fresh human hepatocytes). The method, then:
PXB cells were used as test cells. PXB cells were fresh human hepatocytes isolated from chimeric mice with humanized liver and were maintained in a dHCGM medium for PXB cells. Both the cells and the medium are made by PhoenixBio Co., Ltd.
The PXB cells were seeded at 3×10^5 cells/ml on a collagen-coated 96-well plate and cultured together with each compound at each concentration after stepwise dilution for 7 days under the standard culture conditions of 37° C. and 5% CO2, and thereafter the number of live cells in each well was quantified by an MTT assay. Based on the obtained values, the degree of cytotoxicity was determined, and the CC50 value was calculated as the cytotoxicity of each compound.

Series [4] relates to ETV resistant strain (genotype: HBV/Ce). In words: Evaluation of anti-HBV/Ce activity (Huh-7 cells transfected with ETV resistant strain, Southern blot). To be noted: Hepatitis B virus, Huh-7, 72 h, read-out: Antiviral activity, EC50 HBV ETVr. The protocol: Regarding the above nucleoside derivatives, each nucleoside derivative was added to Huh-7 cells transfected with an ETV resistant strain (genotype: HBV/Ce, referred to as “HBV ETVr” in Table 1). After 72 hours from the addition, DNAs were extracted from the cells according to a conventional method, and analyzed by Southern blot using a probe for the HBV gene. Thus, the DNA copy number of the viruses was quantified, and the EC50 value was calculated in the same way as described above.

The mark [5] stands for this setting: 336 h, day 14, intracellular HBV DNA, read-out: Antiviral activity, EC50 HBV 2W assay.

`C=C1[C@@H](n2cnc3c(=O)[nH]c(N)nc32)C[C@H](O)[C@@]1(C#N)CO`: the EC50 with HBV (setting [5]) was determined as 30 nM; in the series on HIV-1 LAI it was 160 nM. Also, the cytotoxic concentration (CC50) at 7 days in series [1] was 89 µM; in series [2], over 100 µM.
For the compound `C#C[C@]1(CO)C(=C)[C@@H](n2cnc3c(=O)[nH]c(N)nc32)C[C@@H]1O`, the concentration for a half-maximal effect (EC50) with HBV (setting [5]) is over 1000 nM; in the series on HIV-1 LAI it was 27 nM. The cytotoxic concentration (CC50) at 7 days in series [1] and in series [2] was over 100 µM in each case.
For the compound `N#C[C@]1(CO)/C(=C\F)[C@@H](n2cnc3c(=O)[nH]c(N)nc32)C[C@@H]1O` [(1S,3S,5S,E)-3-(2-Amino-6-oxo-1,6-dihydro-9H-purin-9-yl)-2-(fluoromethylene)-5-hydroxy-1-(hydroxymethyl)cyclopentane-1-carbonitrile], the half-maximal effective concentration (EC50) turned out to be 3 nM in the series with HBV (168 h, day 7, HBV DNA in culture supernatant, read-out: Antiviral activity, EC50 HBV 1W assay); 7 nM in the series with HBV (setting [5]); 20 nM with HIV-1 LAI; 65.3 nM in series [4]. Further, the cytotoxic concentration (CC50) at 7 days in series [1] is 50 µM; in series [3] it was over 100 µM; in series [2], over 100 µM.
`C=C1[C@@H](n2cnc3c(=O)[nH]c(N)nc32)C[C@H](O)[C@]1(CO)CF`: the 50% effective concentration (EC50) is 90 nM with HBV (setting [5]) and over 1000 nM with HIV-1 LAI. Moreover, the CC50 at 7 days in series [1] and in series [2] was over 100 µM each time.
For `C=C[C@]1(CO)C(=C)[C@@H](n2cnc3c(=O)[nH]c(N)nc32)C[C@@H]1O`, the half-maximal effective concentration (EC50) with HBV (setting [5]) and in the series on HIV-1 LAI was over 1000 nM each time. Besides, the CC50 at 7 days in series [1] and in series [2] was over 100 µM in each case.
On to `C=C1[C@@H](n2cnc3c(=O)[nH]c(N)nc32)C[C@H](O)[C@@]1(O)CO`, for which the 50% effective concentration (EC50) was 10 nM with HBV (setting [5]) and over 1000 nM in the series with HIV-1 LAI. The 50% cytotoxic concentration (CC50) at 7 days in series [1] is 67 µM; in series [2] it was over 100 µM.
